Columns and labels:
[1] = Stability over time (three-month storage tests, visual); assay type: physicochemical; settings: purified water
Deodorant activity test = settings: γ-CD 1 w/w %, Compound E 0.1 w/w %
Description: The predetermined samples shown in Tables 1 to 5 were tested for deodorant activity against ammonia, acetic acid, isovaleric acid, and nonenal. Now, the test, including the test conditions, will be specifically described. Test Items: The deodorant test and the test to gain SEK mark approval for textiles according to the certification standards of the Japan Textile Evaluation Technology Council (4 ml of sample liquid was applied to a cotton fabric and dried for a period of from 30 minutes to 1 hour. Then, the concentration of the gas volatilized from the cotton fabric was measured by a detection tube and gas chromatography) Odor tested: Ammonia, acetic acid, isovaleric acid, and nonenal Samples used: Sample 1): Compound E 0.1%+γ-CD 1%+purified water 98.9% • Sample 2): Compound E 0.1%+γ-CD 5%+purified water 94.9% Initial gas concentration: Ammonia: 100 ppm (100 cm^2) • Acetic acid: 50 ppm (100 cm^2) • Isovaleric acid: about 38 ppm (48 cm^2) • Nonenal: about 14 ppm (48 cm^2)

Q: Which results are given for `CCCCCCCCCCCCCCCCCC[N+](C)(C)CCC[Si](OCC)(OCC)OCC.[Cl-]` [Compound E, Octadecyl dimethyl(3-triethoxysilylpropyl)ammonium chloride]?
A: Change Over 3 Months (Accelerated Test at 40° C., Cold Test at 5° C., Ambient Test at 25° C.) ([1]; α-CD 1 w/w %, Compound E 0.8 w/w %): Clear but some precipitation was observed; Change Over 3 Months (Accelerated Test at 40° C., Cold Test at 5° C., Ambient Test at 25° C.) ([1]; α-CD 1 w/w %, Compound E 0.9 w/w %): Clear but some precipitation was observed; Change Over 3 Months (Accelerated Test at 40° C., Cold Test at 5° C., Ambient Test at 25° C.) ([1]; α-CD 1 w/w %, Compound E 1 w/w %): Clear but some precipitation was observed; Change Over 3 Months (Accelerated Test at 40° C., Cold Test at 5° C., Ambient Test at 25° C.) ([1]; α-CD 7 w/w %, Compound E 0.1 w/w %): Stable; Change Over 3 Months (Accelerated Test at 40° C., Cold Test at 5° C., Ambient Test at 25° C.) ([1]; α-CD 7 w/w %, Compound E 0.2 w/w %): Stable; Change Over 3 Months (Accelerated Test at 40° C., Cold Test at 5° C., Ambient Test at 25° C.) ([1]; α-CD 7 w/w %, Compound E 0.3 w/w %): Stable; Change Over 3 Months (Accelerated Test at 40° C., Cold Test at 5° C., Ambient Test at 25° C.) ([1]; α-CD 7 w/w %, Compound E 0.4 w/w %): Stable; Change Over 3 Months (Accelerated Test at 40° C., Cold Test at 5° C., Ambient Test at 25° C.) ([1]; α-CD 7 w/w %, Compound E 0.5 w/w %): Stable; Change Over 3 Months (Accelerated Test at 40° C., Cold Test at 5° C., Ambient Test at 25° C.) ([1]; α-CD 7 w/w %, Compound E 0.6 w/w %): Stable; Change Over 3 Months (Accelerated Test at 40° C., Cold Test at 5° C., Ambient Test at 25° C.) ([1]; α-CD 7 w/w %, Compound E 0.7 w/w %): Stable; Change Over 3 Months (Accelerated Test at 40° C., Cold Test at 5° C., Ambient Test at 25° C.) ([1]; α-CD 7 w/w %, Compound E 0.8 w/w %): Stable; Change Over 3 Months (Accelerated Test at 40° C., Cold Test at 5° C., Ambient Test at 25° C.) ([1]; α-CD 7 w/w %, Compound E 0.9 w/w %): Stable; Change Over 3 Months (Accelerated Test at 40° C., Cold Test at 5° C., Ambient Test at 25° C.) ([1]; α-CD 7 w/w %, Compound E 1 w/w %): Stable; Change Over 3 Months (Accelerated Test at 40° C., Cold Test at 5° C., Ambient Test at 25° C.) ([1]; β-CD 1 w/w %, Compound E 0.1 w/w %): Not changed; Change Over 3 Months (Accelerated Test at 40° C., Cold Test at 5° C., Ambient Test at 25° C.) ([1]; β-CD 1 w/w %, Compound E 0.2 w/w %): Not changed; Change Over 3 Months (Accelerated Test at 40° C., Cold Test at 5° C., Ambient Test at 25° C.) ([1]; β-CD 1 w/w %, Compound E 0.3 w/w %): Not changed; Change Over 3 Months (Accelerated Test at 40° C., Cold Test at 5° C., Ambient Test at 25° C.) ([1]; β-CD 1 w/w %, Compound E 0.4 w/w %): Not changed; Change Over 3 Months (Accelerated Test at 40° C., Cold Test at 5° C., Ambient Test at 25° C.) ([1]; β-CD 1 w/w %, Compound E 0.5 w/w %): Not changed; Change Over 3 Months (Accelerated Test at 40° C., Cold Test at 5° C., Ambient Test at 25° C.) ([1]; β-CD 1 w/w %, Compound E 0.6 w/w %): Not changed; Change Over 3 Months (Accelerated Test at 40° C., Cold Test at 5° C., Ambient Test at 25° C.) ([1]; β-CD 1 w/w %, Compound E 0.7 w/w %): Not changed; Change Over 3 Months (Accelerated Test at 40° C., Cold Test at 5° C., Ambient Test at 25° C.) ([1]; β-CD 1 w/w %, Compound E 0.8 w/w %): Not changed; Change Over 3 Months (Accelerated Test at 40° C., Cold Test at 5° C., Ambient Test at 25° C.) ([1]; β-CD 1 w/w %, Compound E 0.9 w/w %): Not changed; Change Over 3 Months (Accelerated Test at 40° C., Cold Test at 5° C., Ambient Test at 25° C.) ([1]; β-CD 1 w/w %, Compound E 1 w/w %): Not changed; Change Over 3 Months (Accelerated Test at 40° C., Cold Test at 5° C., Ambient Test at 25° C.) ([1]; γ-CD 10 w/w %, Compound E 0.1 w/w %): Precipitated; Change Over 3 Months (Accelerated Test at 40° C., Cold Test at 5° C., Ambient Test at 25° C.) ([1]; γ-CD 10 w/w %, Compound E 0.2 w/w %): Precipitated; Change Over 3 Months (Accelerated Test at 40° C., Cold Test at 5° C., Ambient Test at 25° C.) ([1]; γ-CD 10 w/w %, Compound E 0.3 w/w %): Precipitated; Change Over 3 Months (Accelerated Test at 40° C., Cold Test at 5° C., Ambient Test at 25° C.) ([1]; γ-CD 10 w/w %, Compound E 0.4 w/w %): Precipitated; Change Over 3 Months (Accelerated Test at 40° C., Cold Test at 5° C., Ambient Test at 25° C.) ([1]; γ-CD 10 w/w %, Compound E 0.5 w/w %): Precipitated; Change Over 3 Months (Accelerated Test at 40° C., Cold Test at 5° C., Ambient Test at 25° C.) ([1]; γ-CD 10 w/w %, Compound E 0.6 w/w %): Precipitated; Change Over 3 Months (Accelerated Test at 40° C., Cold Test at 5° C., Ambient Test at 25° C.) ([1]; γ-CD 10 w/w %, Compound E 0.7 w/w %): Precipitated; Change Over 3 Months (Accelerated Test at 40° C., Cold Test at 5° C., Ambient Test at 25° C.) ([1]; γ-CD 10 w/w %, Compound E 0.8 w/w %): Precipitated; Change Over 3 Months (Accelerated Test at 40° C., Cold Test at 5° C., Ambient Test at 25° C.) ([1]; γ-CD 10 w/w %, Compound E 0.9 w/w %): Precipitated; Change Over 3 Months (Accelerated Test at 40° C., Cold Test at 5° C., Ambient Test at 25° C.) ([1]; γ-CD 10 w/w %, Compound E 1 w/w %): Precipitated; Deodorant Effect: Deodorant Activity Test (by Detection Tube and Gas Chromatography) (Deodorant activity test): Confirmed
